Source: US20080288176A1 (priority 2005, published 2008)

Experiments:
[1] = Hydrolysis in various enzymatic preparations (rat and human intestinal and liver microsomes); conditions: for Stability of the NO-AA formed (in words): intestinal and liver microsomes of human and rats; for Initial loss of the prodrug candidate (in words): various enzymatic preparations
[2] = Hydrolysis in human intestinal microsomes; type: in vitro ADME; conditions: for intestinal microsomal activity: model input
Source text: (§1) The physiologically based pharmacokinetic/pharmacodynamic model of the present invention contains a series of compartments that describe the time course of a nonsteroidal anti-inflammatory prodrug, its active metabolites and nitric oxide release in intestine, liver, kidneys, blood/plasma and heart after prodrug administration. The time course of the prodrug, its active metabolites and nitric oxide release can be simulated using a series of in vitro and in silico inputs. The stability of each component in the gastrointestinal lumen is estimated using data collected from artificial gastric and intestinal juice. Intestinal metabolism is estimated using intestinal microsomes and absorption rate is estimated using permeability data collected from a cell monolayer such as Caco-2. Hepatic elimination is estimated using liver microsomes and stability in plasma is calculated using degradation of each component in the media. Plasma protein binding can either be measured using a standardized in vitro method or it can be estimated using an in silico method. The distribution of each component in various parts of the body is estimated using an in silico method. The rate of nitric oxide release is estimated using an in vitro endothelial cell model. The time course of prodrug, its active metabolites and nitric oxide can be simulated in human and animal using this physiologically based pharmacokinetic/pharmacodynamic model provided that the corresponding in vitro and in silico data are used as inputs.
The selection of in vitro tests is designed to provide parameters for the above mentioned model. The use of an inappropriate test would result in wrong predictions. For example, Knaus et al. (2005) used guinea pig serum and porcine esterases to hydrolyze their O^2-substituted diazeniumdiolate derivatives of ASPIRIN, as disclosed in U.S. Ser. No. 60/681,842. These tests provided very little information in terms of in vivo human NO-NSAID metabolism rate and the extent to which metabolic conversion to NO donor and NSAID occurred. […] The half-life values were less than one minute. Based on these observations, it has become apparent that prior to entering the systemic circulation, it is likely that the NO-NSAID would have been hydrolyzed in the enterocytes and little or no NO-NSAID would have been detected in the blood stream. Furthermore, the release of NO will commence immediately once the NO donor is detached from the NSAID.
(§2) Representative in vitro tests or in silico estimates include: (a) pKa estimation or measurement; (b) Log P measurement or in silico estimation; (c) Solubility in various physiological fluids; (d) Permeability. Caco-2 and/or NOVOKIN's proprietary animal and human cell lines can be used to obtain this parameter; (e) Metabolic rate in the intestine and liver. Human or animal intestinal microsomes, S9 fraction, and cytosol can be used for this purpose. Human or animal hepatocytes, liver microsomes, S9 fraction, and cytosol can also be used; (f) Hydrolysis in human or animal plasma; (g) Serum or plasma protein binding. It can be measured in vitro or estimated in silico; (h) The rate of NO release; (i) Existing pharmacokinetic and pharmacodynamic data of NSAID or a biocompatible agent; (j) Existing NO release rate of known diazeniumdiolate if applicable; (k) Stability in gastric and intestinal environment; and (l) In silico volume of distribution estimation.
(§3) Whenever in vitro estimate is attainable, the in vitro results will be used, for example, plasma protein binding. Methods reported by Bowalgaha & Miners (2001), Martignoni et al. (2006), Tong et al. (2001) and Thulesen et al. (1999) were used for in vitro and in vivo scale-up for clearance in the intestine, absorption rate constant and hepatic clearance. The simulation begins with no material in all compartments except for the initial bolus in one compartment (typically the stomach compartment). The simulation then estimates the changing distribution of the material with time.

[3] = Hydrolysis in rat liver microsomes; type: in vitro ADME; conditions: for liver microsomal activity: model input
Source text: as §1, §2, §3

[4] = Hydrolysis in human liver microsomes; type: in vitro ADME; conditions: for liver microsomal activity: model input
Source text: as §1, with “The” for “The physiologically based pharmacokinetic/pharmacodynamic model of the present invention contains a series of compartments that describe the time course of a nonsteroidal anti-inflammatory prodrug, its active metabolites and nitric oxide release in intestine, liver, kidneys, blood/plasma and heart after prodrug administration. The”
The selection of in vitro tests is designed to provide parameters for the above mentioned model. The use of an inappropriate test would result in wrong predictions.
as §2
The simulation begins with no material in all compartments except for the initial bolus in one compartment (typically the stomach compartment). The simulation then estimates the changing distribution of the material with time.

Hydrolysis in rat plasma = type: in vitro ADME; conditions: for Hydrolysis of the NO-AA in rat plasma (in words) / NO-AA half-life in plasma: NO-AA formed from the prodrug
Source text: as §1, §2

[5] = Hydrolysis in rat intestinal microsomes; type: in vitro ADME; conditions: for intestinal microsomal activity: model input
Source text: as §1, §2, §3

[6] = Stability in intestinal lumen (decay rate); type: in vitro ADME
Source text: as §1, §2

[7] = Stability in gastric environment (gastric decay rate); type: in vitro ADME
Source text: as §1, §2

[8] = Enzymatic hydrolysis in liver microsomal preparations (LC-MS); type: in vitro ADME; conditions: liver microsomal preparations
Method: (§4) The sensitivity of the prodrug 3 towards enzymatic hydrolysis was evaluated by LC-MS. Liver and intestinal microsomal preparations were used. […] However, these rates were slower than the enzymatic hydrolysis rates determined for the conversion of 1→4 and 2→5 (complete hydrolysis observed in 10 and 30 minutes respectively in liver microsomal preparations).

[9] = Chemical stability (loss of diazeniumdiolate) in phosphate buffer; type: physicochemical
Method: They varied only in the nitrogen substituent of the amino acid, i.e. free amine (1), acetyl (2) and pivaloyl (3) groups. Their chemical stability was evaluated in phosphate buffer at different pH's over a 30 minute period (Table 11).

[10] = Enzymatic hydrolysis in intestinal microsomal preparations (LC-MS); type: in vitro ADME; conditions: after 2 hours
Method: as §4

| Structure (SMILES) | Stability of the NO-AA formed (in words) [1] | Initial loss of the prodrug candidate (in words) [1] | intestinal molar percent conversion to Naproxen [2] [%] | intestinal microsomal activity [2] [mL/min/organ] | liver molar percent conversion to Naproxen [3] [%] | liver microsomal activity [3] [mL/min/organ] | liver molar percent conversion to Naproxen [4] [%] | liver microsomal activity [4] [mL/min/organ] | Hydrolysis of the NO-AA in rat plasma (in words) (Hydrolysis in rat plasma) | NO-AA half-life in plasma (Hydrolysis in rat plasma; Rat) [min] | intestinal molar percent conversion to Naproxen [5] [%] | intestinal microsomal activity [5] [mL/min/organ] | intestinal lumen decay rate constant ([6]; Human) [min⁻¹] | intestinal lumen decay rate constant ([6]; Rat) [min⁻¹] | gastric decay rate constant ([7]; Human) | gastric decay rate constant ([7]; Rat) | also measured |
| --- | --- | --- | --- | --- | --- | --- | --- | --- | --- | --- | --- | --- | --- | --- | --- | --- | --- |
| COc1ccc2cc(C(C)C(=O)OCOC(=O)CCC(NC(=O)C(C)(C)C)C(=O)OCON=[N+]([O-])N(C)C)ccc2c1 (stereo not drawn) [CMD 113] | relatively stable | rapid initial loss | 75 | 4813 | 90 | 6545 | 72 | 434763 | relatively fast rate | 9.2 | 62 | 2 | 0.2 | 0.2 | 0 /mint | 0 /mint | plasma decay rate constant (Hydrolysis in rat plasma; Rat): 1.2 min⁻¹ |
| COc1ccc2cc(C(C)C(=O)OCOC(=O)C(CCC(=O)OCON=[N+]([O-])N(C)C)NC(=O)C(C)(C)C)ccc2c1 (stereo not drawn) [CMD 114] | relatively stable | rapid initial loss | 78 | 5006 | 60 | 7667 | 50 | 721224 | relatively fast rate | 3.8 | 42 | 9 | 0.67 | 0.67 | 0 /mint | 0 /mint |  |
| COc1ccc2cc(C(C)C(=O)OC3CC(C(=O)OCO/N=[N+](\[O-])N(C)C)N(C(=O)C(C)(C)C)C3)ccc2c1 (stereo not drawn) [Compound 3] |  |  |  |  |  |  |  |  |  |  |  |  |  |  |  |  | Time to complete hydrolysis (cleavage of the diazeniumdiolate) [8]: 2 h; Stability (loss of diazeniumdiolate), pH 2.5 ([9]; 30 min, pH 2.5): ✓; Stability (loss of diazeniumdiolate), pH 5.0 ([9]; 30 min, pH 5.0): ✓; Stability (loss of diazeniumdiolate), pH 7.0 ([9]; 30 min, pH 7.0): ✓; Chemical stability (in words) ([9]; pH range 2.5-7.0, 30 minute period): stable; Conversion to NSAID-amino acid (cleavage of the diazeniumdiolate) [10]: 50% |
